Source: US20240156698A1, “BIOCIDE COMPOSITIONS AND USES THEREOF” (PHARMOTECH SA, priority 2021, published 2024)

Experiments:
CB2 receptors = CB2 receptors (Homo sapiens, UniProt P34972); conditions: compared with THC; cited from earlier work
[1] = Skin absorption, Franz diffusion cells with dermatomed skin explants; type: in vitro ADME
Procedure: The transdermal absorption tests are carried out using a modified methodology of Franz diffusion cells, in which a semi-permeable membrane is used, such as reconstructed skin or skin explants. The membrane is located between the (i) donor and (ii) receptor compartments with the stratum corneum facing upward. The product is applied to the exposed stratum corneum in the donor compartment. Under the membrane, the receiving chamber contains a solution that simulates physiological conditions and where the tested substances are highly soluble.
After the product is delivered to the surface of the skin, samples are taken from the receptor compartment at predetermined times to determine the amount of substance accumulated in the receptor compartment as a function of time. In addition, at the end of the test, the extraction of the substance that has been retained in the skin is carried out. For the quantification of all the samples obtained, a suitable analytical method is necessary for each substance investigated. The skin explants were dermatomed (the dermatome device allows to cut skin layers of the skin at a determined thickness) at 200 μm thickness and placed on Franz cells, the receptor compartment was filled with PBS solution, used to simulate the physiological fluid and allowed to equilibrate for at least 30 minutes. Then, receptor solution was added into the donor compartment and the integrity of the skin was determined. After removing the solution and drying the donor, the composition of the invention 3 μl/0.38 cm2 (7.9 uL/cm2) was administered into the donor compartment.
Samples from the receptor compartment were taken at predetermined times to obtain the amount of active permeated. Said samples were filtered on 0.2 μm pore size cellulose acetate filters and analyzed by HPLC. The sample volume taken was replaced with fresh receptor solution. After taking the last sample from the receptor compartment, a first wash of the skin surface was performed with PBS, then, the Franz cells were disassembled.
The skin was carefully dried and the stratum corneum was removed by tape stripping. Tapes were put in 2 mL of extraction medium for at least 2 hours. The skin diffusion area was cut into small pieces and placed in extraction liquid under continuous stirring for 1 hour. After filtering the samples obtained, they were analyzed by HPLC to obtain the amount of substance retained on the skin.

[2] = 2 hours after application of the composition to the skin
[3] = composition of the invention 7.9 uL/cm2 applied to skin explant, Franz cell

Sequence of CB2 receptors (P34972 whole entry, the tested form may be a part): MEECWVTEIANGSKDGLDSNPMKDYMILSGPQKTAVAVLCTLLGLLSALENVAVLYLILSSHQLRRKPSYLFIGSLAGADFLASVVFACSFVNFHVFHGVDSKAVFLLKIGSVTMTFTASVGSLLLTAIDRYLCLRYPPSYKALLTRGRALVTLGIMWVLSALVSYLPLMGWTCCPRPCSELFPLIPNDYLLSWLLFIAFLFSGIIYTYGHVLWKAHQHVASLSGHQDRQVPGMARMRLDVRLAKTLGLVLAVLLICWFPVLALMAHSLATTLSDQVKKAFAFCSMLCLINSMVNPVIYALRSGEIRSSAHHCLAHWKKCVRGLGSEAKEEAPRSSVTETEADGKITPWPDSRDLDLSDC

In the case of `C=C(C)[C@@H]1CCC(C)=C[C@H]1c1c(O)cc(CCCCC)cc1O` [CBD, 2-[(1R,6R)-6-isopropenyl-3-methylcyclohex-2-en-1-yl]-5-pentylbenzene-1,3-diol], the “Affinity for CB2 receptors” value (CB2 receptors) is listed as “very low affinity”, the “Permeation of CBD (receptor compartment)” value ([1]; 1 hour after application of the composition to the skin) is listed as “No permeation” and the “CBD in the stratum corneum (tape stripping)” value [1, 2] is listed as “No CBD was found”. The “Permeation of CBD (receptor compartment)” value [1, 2] was “No permeation”, the “CBD absorbed in the skin” value [1, 3] was 2.38±1.52 μg CBD/cm^2 and the “CBD absorbed in the skin as share of the CBD applied on the top of the skin” value [1, 3] was 15.85%.
